Measurements published in the supplement of paper PMC9103864.

Experiments:
[1] = tested on: BMSC (primary human bone marrow mesenchymal stromal cells); test: absolute EC50 for viability; higher = less sensitive
[2] = tested on: BMSC (primary human bone marrow mesenchymal stromal cells); test: drug sensitivity score (DSS); higher = more sensitive

Row | SMILES | absolute EC50 for viability [1] [nM] | drug sensitivity score [2]
1 | Cc1cc(Nc2cc(N3CCN(C)CC3)nc(/C=C/c3ccccc3)n2)n[nH]1 [ENMD-2076] | 897 | 11.5
2 | CC/C(=C(\c1ccc(O)cc1)c1ccc(OCCN(C)C)cc1)c1ccccc1 [4-hydroxytamoxifen] | 9930 | 0
3 | CCC1(c2ccc(N)cc2)CCC(=O)NC1=O (configuration not stated) [Aminoglutethimide] | > 10000 | 0
4 | C#Cc1cccc(Nc2ncnc3cc4c(cc23)OCCOCCOCCO4)c1 [Icotinib] | > 10000 | 2.1
5 | C[C@@H]1C=C2C(=O)O[C@@H]3CC[C@H](C1)[C@]23O [Galiellalactone] | > 25000 | 1.3
6 | CO[C@@H]1[C@H](N(C)C(=O)c2ccccc2)C[C@H]2O[C@]1(C)n1c3ccccc3c3c4c(c5c6ccccc6n2c5c31)C(=O)NC4 [Midostaurin] | 1650 | 7.5
7 | CC(=O)Nc1cccc(-n2c(=O)n(C3CC3)c(=O)c3c(Nc4ccc(I)cc4F)n(C)c(=O)c(C)c32)c1 [Trametinib] | > 250 | 2.7
8 | C[C@]12CC[C@@H]3c4ccc(O)cc4C[C@@H](CCCCCCCCC[S+]([O-])CCCC(F)(F)C(F)(F)F)[C@H]3[C@@H]1CC[C@@H]2O (some centres not stated) [Fulvestrant] | > 1000 | 0
9 | COc1cc([C@@H]2c3cc4c(cc3[C@@H](O[C@@H]3O[C@@H]5CO[C@@H](c6cccs6)O[C@H]5[C@H](O)[C@H]3O)[C@H]3COC(=O)[C@H]23)OCO4)cc(OC)c1O [Teniposide] | > 10000 | 0
10 | Cn1cc(CNCC2CCN(c3ncc(C(=O)NO)cn3)CC2)c2ccccc21 [Quisinostat] | 181 | 8.3
11 | COc1cc(NS(C)(=O)=O)ccc1Nc1c2ccccc2nc2ccccc12 [Amsacrine] | > 10000 | 2.8
12 | CCCCc1nc2cc(/C=C/C(=O)NO)ccc2n1CCN(CC)CC [Pracinostat] | 1560 | 8.8
13 | CCCCC(=O)OCC(=O)[C@]1(O)Cc2c(O)c3c(c(O)c2[C@@H](O[C@H]2C[C@H](NC(=O)C(F)(F)F)[C@H](O)[C@H](C)O2)C1)C(=O)c1c(OC)cccc1C3=O [Valrubicin] | 489 | 10.8
14 | CC(C)n1nc(-c2ccc3oc(N)nc3c2)c2c(N)ncnc21 [Sapanisertib] | 75.9 | 11.4
15 | COc1cc2c(Oc3ccc(NC(=O)C4(C(=O)Nc5ccc(F)cc5)CC4)cc3F)ccnc2cc1OCCCN1CCOCC1 [Foretinib] | 460 | 6
16 | CN[C@@H](C)C(=O)N[C@H]1CN(C(=O)CC(C)C)CC[C@H]2CC[C@@H](C(=O)NC(c3ccccc3)c3ccccc3)N2C1=O [AT-406] | > 10000 | 0
17 | CNc1nc(-c2ccc3c(N)n[nH]c3c2)cc(N2C[C@@H](C(=O)NC3CCCCC3)CC[C@H]2C)n1 | > 10000 | 5.4
18 | Cc1cc(-c2ncc(CC(=O)Nc3ccc(-c4cnccn4)cn3)cc2C)ccn1 [NVP-LGK974] | > 10000 | 0.4
19 | Cc1cc(OCc2nnc(SC3CCCC3)n2-c2cccnc2)ccc1-c1ccc(S(C)(=O)=O)cc1 [NMS-873] | 5400 | 4.1
20 | CNC(=O)c1nn(C)c2c1C(C)(C)Cc1cnc(Nc3ccc(N4CCN(C)CC4)cc3)nc1-2 [Milciclib] | > 10000 | 10.1
21 | Cc1sc2c(c1C)C(c1ccc(Cl)cc1)=N[C@@H](CC(=O)OC(C)(C)C)c1nnc(C)n1-2 [JQ1] | > 10000 | 5.3

Row | SMILES | absolute EC50 for viability [1] [nM] | drug sensitivity score [2]
22 | C[C@]1(c2nc3c(C(N)=O)cccc3[nH]2)CCCN1 [Veliparib] | > 10000 | 0
23 | CN1CC[C@H](c2c(O)cc(O)c3c(=O)cc(-c4ccccc4Cl)oc23)[C@H](O)C1 [Alvocidib] | 739 | 10.8
24 | N[C@@H]1CCCN(c2c(/C=C3\SC(=O)NC3=O)cccc2-c2ccccc2)C1 [AZD1208] | > 10000 | 0.5
25 | C[C@H](Nc1ncnc2[nH]cnc12)c1cc2ccc(F)cc2nc1-c1ccccn1 [AMG319] | > 1000 | 0.1
26 | CN(C)C/C=C/C(=O)Nc1cc2c(Nc3ccc(F)c(Cl)c3)ncnc2cc1O[C@H]1CCOC1 [Afatinib] | > 1000 | 2.9
27 | CO[C@H]1C(=O)[C@]2(C)[C@@H](OC)C[C@H]3OC[C@@]3(OC(C)=O)[C@H]2[C@H](OC(=O)c2ccccc2)[C@]2(O)C[C@H](OC(=O)[C@H](O)[C@@H](NC(=O)OC(C)(C)C)c3ccccc3)C(C)=C1C2(C)C [Cabazitaxel] | > 1000 | 7.2
28 | CC(C)(C)C[C@@H]1N[C@@H](C(=O)N[C@H]2CC[C@H](O)CC2)[C@H](c2cccc(Cl)c2F)[C@]12C(=O)Nc1cc(Cl)ccc12 | 2490 | 10.5
29 | O=C(Nc1cnn2ccc(N3CCC[C@@H]3c3cc(F)ccc3F)nc12)N1CC[C@H](O)C1 [Larotrectinib] | > 1000 | 0
30 | CCC(C)(C)C(=O)O[C@H]1C[C@@H](C)C=C2C=C[C@H](C)[C@H](CC[C@@H]3C[C@@H](O)CC(=O)O3)[C@H]21 [Simvastatin] | > 10000 | 2.4
31 | CC[C@@H]1C(=O)N(C)c2cnc(Nc3ccc(C(=O)N[C@H]4CC[C@H](N5CCN(CC6CC6)CC5)CC4)cc3OC)nc2N1C(C)C [Volasertib] | > 1000 | 1.5
32 | CC(C)(O)CNc1nc(Nc2ccnc(C(F)(F)F)c2)nc(-c2cccc(C(F)(F)F)n2)n1 [Enasidenib] | > 10000 | 0
33 | COCC[n+]1c2c(n(Cc3cnccn3)c1C)C(=O)c1ccccc1C2=O [Sepantronium bromide] | 70.5 | 25.4
34 | Cc1ccc(F)c(NC(=O)Nc2ccc(-c3cccc4[nH]nc(N)c34)cc2)c1 [Linifanib] | > 1000 | 0
35 | COc1cc2c(Oc3ccc4[nH]c(C)cc4c3F)ncnc2cc1OCCCN1CCCC1 [Cediranib] | > 1000 | 2.5
36 | Nc1nc(Cl)nc2c1ncn2[C@H]1C[C@H](O)[C@@H](CO)O1 [Cladribine] | > 1000 | 2.3
37 | COc1ccccc1S(=O)(=O)Nc1ccc2c(c1)CN(C)C(=O)N2 [PFI-1] | > 30000 | 1.9
38 | CNC(=O)CN1CCC(Oc2cc3c(Nc4cccc(Cl)c4F)ncnc3cc2OC)CC1 [Sapitinib] | > 1000 | 0
39 | COc1cc(OC)c(/C=C/S(=O)(=O)Cc2ccc(OC)c(NCC(=O)O)c2)c(OC)c1 [Rigosertib] | > 10000 | 8.9
40 | Nc1cc(F)ccc1NC(=O)/C=C/c1cnn(C/C=C/c2ccccc2)c1 [RGFP966] | > 10000 | 0.6
41 | COc1cc2c(cc1OCCCN1CCCC1)N=C(N)C21CCC1 [A-366] | > 25000 | 2.8
